From PMC4864567, “Characterization of the ATP-Dependent Lon-Like Protease in Methanobrevibacter smithii” (Archaea, 2016)

Experiments:
Lon-like-Ms [1] = target: T1, Lon-like-Ms (Methanobrevibacter smithii, UniProt A5UP31); experiment: fluorogenic peptide cleavage (MNA release); type: biochemical; conditions: ADP in place of ATP, with Mg2+; Glt-AAF-MNA, pH 8.0, 37 °C; called inhibitory, partial activity retained
T1 construct: gene Msm_1754
T1 sequence (A5UP31 1-682): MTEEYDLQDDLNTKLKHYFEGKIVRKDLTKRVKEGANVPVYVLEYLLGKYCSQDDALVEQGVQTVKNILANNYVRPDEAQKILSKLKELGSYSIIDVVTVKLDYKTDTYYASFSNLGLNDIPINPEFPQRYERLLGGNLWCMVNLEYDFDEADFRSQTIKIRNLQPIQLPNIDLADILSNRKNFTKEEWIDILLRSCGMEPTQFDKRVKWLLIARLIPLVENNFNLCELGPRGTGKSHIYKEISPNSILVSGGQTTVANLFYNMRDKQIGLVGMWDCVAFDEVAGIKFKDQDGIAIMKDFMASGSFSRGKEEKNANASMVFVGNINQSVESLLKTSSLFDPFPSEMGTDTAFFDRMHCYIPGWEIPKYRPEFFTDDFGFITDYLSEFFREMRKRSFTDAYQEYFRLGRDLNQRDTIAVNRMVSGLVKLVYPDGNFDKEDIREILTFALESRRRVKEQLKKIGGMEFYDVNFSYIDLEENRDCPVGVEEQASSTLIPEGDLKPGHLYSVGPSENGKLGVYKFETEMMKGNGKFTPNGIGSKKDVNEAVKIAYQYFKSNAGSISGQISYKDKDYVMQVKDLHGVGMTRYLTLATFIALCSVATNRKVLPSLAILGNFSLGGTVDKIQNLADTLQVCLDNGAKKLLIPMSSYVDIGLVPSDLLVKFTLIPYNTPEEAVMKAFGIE

Lon-like-Ms [2] = target: T1, Lon-like-Ms; experiment: fluorogenic peptide cleavage (MNA release); type: biochemical; conditions: 0.3 mM Glt-AAF-MNA, 10 mM MgCl2, pH 8.0, 37 °C; nucleotide required for activity, inhibitory at rising concentration; not a fitted IC50
From the text: fluorogenic peptide cleavage (MNA release) on Lon-like-Ms | reaching a decrease by half at 1-mM ATP or AMP-PNP

SMILES	fluorogenic peptide cleavage (MNA release) (Lon-like-Ms [1])	concentration giving decrease by half (Lon-like-Ms [2])
Nc1ncnc2c1ncn2[C@@H]1O[C@H](COP(=O)(O)OP(=O)(O)O)[C@@H](O)[C@H]1O [ADP]	ADP, a potent inhibitor of Lon from E. coli, also inhibited the activity of Lon-like-Ms	–
Nc1ncnc2c1ncn2[C@@H]1O[C@H](COP(=O)(O)OP(=O)(O)NP(=O)(O)O)[C@@H](O)[C@H]1O [5′-adenylyl imidodiphosphate]	–	~ 1 mM
Nc1ncnc2c1ncn2[C@@H]1O[C@H](COP(=O)(O)OP(=O)(O)OP(=O)(O)O)[C@@H](O)[C@H]1O [ATP]	–	~ 1 mM
